{"source": "ChEMBL document CHEMBL3865783", "about": "“Synthesis and antimicrobial activity against Pseudomonas aeruginosa of macrocyclic β-hairpin peptidomimetic antibiotics containing N-methylated amino acids” (Bioorg Med Chem, 2016)", "key": {"[1]": {"molecular_target": "T1, LPS-assembly protein LptD (Pseudomonas aeruginosa (strain ATCC 15692 / DSM 22644 / CIP 104116 /JCM 14847 / LMG 12228 / 1C / PRS 101 / PAO1)) (UniProt Q9I5U2)", "T1 sequence (whole entry)": "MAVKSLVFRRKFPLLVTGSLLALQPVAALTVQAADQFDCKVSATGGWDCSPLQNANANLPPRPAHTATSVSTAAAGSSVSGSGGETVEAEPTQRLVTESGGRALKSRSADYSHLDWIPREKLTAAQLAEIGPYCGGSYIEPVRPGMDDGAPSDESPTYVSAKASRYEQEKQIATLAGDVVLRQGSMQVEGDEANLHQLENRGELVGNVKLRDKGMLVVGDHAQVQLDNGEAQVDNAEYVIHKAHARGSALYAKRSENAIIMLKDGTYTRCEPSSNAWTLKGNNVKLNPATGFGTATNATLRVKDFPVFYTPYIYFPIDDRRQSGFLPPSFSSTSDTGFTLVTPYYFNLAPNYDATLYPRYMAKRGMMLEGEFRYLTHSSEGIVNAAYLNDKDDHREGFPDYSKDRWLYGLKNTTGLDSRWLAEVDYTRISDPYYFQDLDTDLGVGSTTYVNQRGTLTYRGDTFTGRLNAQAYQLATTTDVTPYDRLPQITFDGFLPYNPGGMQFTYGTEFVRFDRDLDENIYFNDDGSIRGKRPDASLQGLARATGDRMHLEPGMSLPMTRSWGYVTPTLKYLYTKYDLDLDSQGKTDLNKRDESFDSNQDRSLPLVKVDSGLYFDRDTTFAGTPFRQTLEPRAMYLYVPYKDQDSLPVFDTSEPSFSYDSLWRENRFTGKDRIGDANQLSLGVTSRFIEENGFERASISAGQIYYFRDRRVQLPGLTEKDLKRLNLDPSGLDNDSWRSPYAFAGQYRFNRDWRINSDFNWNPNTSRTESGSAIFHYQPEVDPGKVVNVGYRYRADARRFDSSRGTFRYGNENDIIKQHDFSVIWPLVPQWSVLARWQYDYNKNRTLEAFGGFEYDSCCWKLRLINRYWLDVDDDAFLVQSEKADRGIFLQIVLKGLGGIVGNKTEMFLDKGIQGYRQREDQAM", "assay": "Inhibition of LptD in Pseudomonas aeruginosa PAO1 assessed as microbial growth inhibition by microbroth dilution method"}, "Pseudomonas aeruginosa": {"tested_on": "Pseudomonas aeruginosa", "assay": "Inhibition of LptD in Pseudomonas aeruginosa ATCC 27853 assessed as microbial growth inhibition by microbroth dilution method"}}}
{"compound": "CC(C)C[C@@H]1NC(=O)[C@H](Cc2c[nH]c3ccccc23)NC(=O)[C@H]([C@@H](C)O)NC(=O)[C@@H]2CCCN2C(=O)[C@H]2CCCN2C(=O)[C@H](CCCCN)NC(=O)[C@H](C)NC(=O)[C@H](CCN)NC(=O)[C@H](CCCN)NC(=O)[C@H](Cc2c[nH]c3ccccc23)NC(=O)[C@H](CCCNC(=N)N)NC(=O)[C@@H](CCCCN)NC(=O)[C@H](CCCN)NC(=O)[C@H](CCN)N(C)C1=O", "values": [{"measurement": "MIC", "setting": "[1]", "result": 0.009, "unit": "µg/mL"}, {"measurement": "MIC", "setting": "Pseudomonas aeruginosa", "result": 0.005, "unit": "µg/mL"}]}
{"compound": "CC(C)C[C@@H]1NC(=O)[C@H](Cc2c[nH]c3ccccc23)NC(=O)[C@H]([C@@H](C)O)N(C)C(=O)[C@@H]2CCCN2C(=O)[C@H]2CCCN2C(=O)[C@H](CCCCN)NC(=O)[C@H](C)NC(=O)[C@H](CCN)NC(=O)[C@H](CCCN)NC(=O)[C@H](Cc2c[nH]c3ccccc23)NC(=O)[C@H](CCCNC(=N)N)NC(=O)[C@@H](CCCCN)NC(=O)[C@H](CCCN)NC(=O)[C@H](CCN)NC1=O", "values": [{"measurement": "MIC", "setting": "[1]", "result": 0.38, "unit": "µg/mL"}, {"measurement": "MIC", "setting": "Pseudomonas aeruginosa", "result": 0.19, "unit": "µg/mL"}]}
{"compound": "CC(C)C[C@@H]1NC(=O)[C@H](Cc2c[nH]c3ccccc23)NC(=O)[C@H]([C@@H](C)O)NC(=O)[C@@H]2CCCN2C(=O)[C@H]2CCCN2C(=O)[C@H](CCCCN)NC(=O)[C@H](C)NC(=O)[C@H](CCN)NC(=O)[C@H](CCCN)NC(=O)[C@H](Cc2c[nH]c3ccccc23)NC(=O)[C@H](CCCNC(=N)N)NC(=O)[C@@H](CCCCN)NC(=O)[C@H](CCCN)N(C)C(=O)[C@H](CCN)NC1=O", "values": [{"measurement": "MIC", "setting": "[1]", "result": 0.008, "unit": "µg/mL"}, {"measurement": "MIC", "setting": "Pseudomonas aeruginosa", "result": 0.009, "unit": "µg/mL"}]}
{"compound": "CC(C)C[C@@H]1NC(=O)[C@H](Cc2c[nH]c3ccccc23)NC(=O)[C@H]([C@@H](C)O)NC(=O)[C@@H]2CCCN2C(=O)[C@H]2CCCN2C(=O)[C@H](CCCCN)NC(=O)[C@H](C)NC(=O)[C@H](CCN)NC(=O)[C@H](CCCN)NC(=O)[C@H](Cc2c[nH]c3ccccc23)NC(=O)[C@H](CCCNC(=N)N)NC(=O)[C@@H](CCCCN)NC(=O)[C@H](CCCN)NC(=O)[C@H](CCN)NC1=O", "values": [{"measurement": "MIC", "setting": "[1]", "result": 0.015, "unit": "µg/mL"}, {"measurement": "MIC", "setting": "Pseudomonas aeruginosa", "result": 0.008, "unit": "µg/mL"}]}
{"compound": "CC(C)C[C@@H]1NC(=O)[C@H](Cc2c[nH]c3ccccc23)N(C)C(=O)[C@H]([C@@H](C)O)NC(=O)[C@@H]2CCCN2C(=O)[C@H]2CCCN2C(=O)[C@H](CCCCN)NC(=O)[C@H](C)NC(=O)[C@H](CCN)NC(=O)[C@H](CCCN)NC(=O)[C@H](Cc2c[nH]c3ccccc23)NC(=O)[C@H](CCCNC(=N)N)NC(=O)[C@@H](CCCCN)NC(=O)[C@H](CCCN)NC(=O)[C@H](CCN)NC1=O", "values": [{"measurement": "MIC", "setting": "[1]", "result": "> 64", "unit": "µg/mL"}, {"measurement": "MIC", "setting": "Pseudomonas aeruginosa", "result": "> 64", "unit": "µg/mL"}]}
{"compound": "CC(C)C[C@@H]1NC(=O)[C@H](Cc2c[nH]c3ccccc23)NC(=O)[C@H]([C@@H](C)O)NC(=O)[C@@H]2CCCN2C(=O)[C@H]2CCCN2C(=O)[C@H](CCCCN)NC(=O)[C@H](C)NC(=O)[C@H](CCN)NC(=O)[C@H](CCCN)N(C)C(=O)[C@H](Cc2c[nH]c3ccccc23)NC(=O)[C@H](CCCNC(=N)N)NC(=O)[C@@H](CCCCN)NC(=O)[C@H](CCCN)NC(=O)[C@H](CCN)NC1=O", "values": [{"measurement": "MIC", "setting": "[1]", "result": 16, "unit": "µg/mL"}, {"measurement": "MIC", "setting": "Pseudomonas aeruginosa", "result": 12, "unit": "µg/mL"}]}
{"compound": "CC(C)C[C@@H]1NC(=O)[C@H](Cc2c[nH]c3ccccc23)NC(=O)[C@H]([C@@H](C)O)NC(=O)[C@@H]2CCCN2C(=O)[C@H]2CCCN2C(=O)[C@H](CCCCN)N(C)C(=O)[C@H](C)NC(=O)[C@H](CCN)NC(=O)[C@H](CCCN)NC(=O)[C@H](Cc2c[nH]c3ccccc23)NC(=O)[C@H](CCCNC(=N)N)NC(=O)[C@@H](CCCCN)NC(=O)[C@H](CCCN)NC(=O)[C@H](CCN)NC1=O", "values": [{"measurement": "MIC", "setting": "[1]", "result": "> 64", "unit": "µg/mL"}, {"measurement": "MIC", "setting": "Pseudomonas aeruginosa", "result": "> 64", "unit": "µg/mL"}]}
{"compound": "CC(C)C[C@@H]1NC(=O)[C@H](Cc2c[nH]c3ccccc23)NC(=O)[C@H]([C@@H](C)O)NC(=O)[C@@H]2CCCN2C(=O)[C@H]2CCCN2C(=O)[C@H](CCCCN)NC(=O)[C@H](C)NC(=O)[C@H](CCN)NC(=O)[C@H](CCCN)NC(=O)[C@H](Cc2c[nH]c3ccccc23)NC(=O)[C@H](CCCNC(=N)N)N(C)C(=O)[C@@H](CCCCN)NC(=O)[C@H](CCCN)NC(=O)[C@H](CCN)NC1=O", "values": [{"measurement": "MIC", "setting": "[1]", "result": 0.75, "unit": "µg/mL"}, {"measurement": "MIC", "setting": "Pseudomonas aeruginosa", "result": 0.38, "unit": "µg/mL"}]}
{"compound": "CC(C)C[C@@H]1NC(=O)[C@H](Cc2c[nH]c3ccccc23)NC(=O)[C@H]([C@@H](C)O)NC(=O)[C@@H]2CCCN2C(=O)[C@H]2CCCN2C(=O)[C@H](CCCCN)NC(=O)[C@H](C)NC(=O)[C@H](CCN)N(C)C(=O)[C@H](CCCN)NC(=O)[C@H](Cc2c[nH]c3ccccc23)NC(=O)[C@H](CCCNC(=N)N)NC(=O)[C@@H](CCCCN)NC(=O)[C@H](CCCN)NC(=O)[C@H](CCN)NC1=O", "values": [{"measurement": "MIC", "setting": "[1]", "result": 12, "unit": "µg/mL"}, {"measurement": "MIC", "setting": "Pseudomonas aeruginosa", "result": 1, "unit": "µg/mL"}]}
{"compound": "CC(C)C[C@@H]1NC(=O)[C@H](Cc2c[nH]c3ccccc23)NC(=O)[C@H]([C@@H](C)O)NC(=O)[C@@H]2CCCN2C(=O)[C@H]2CCCN2C(=O)[C@H](CCCCN)NC(=O)[C@H](C)NC(=O)[C@H](CCN)NC(=O)[C@H](CCCN)NC(=O)[C@H](Cc2c[nH]c3ccccc23)NC(=O)[C@H](CCCNC(=N)N)NC(=O)[C@@H](CCCCN)N(C)C(=O)[C@H](CCCN)NC(=O)[C@H](CCN)NC1=O", "values": [{"measurement": "MIC", "setting": "[1]", "result": 0.025, "unit": "µg/mL"}, {"measurement": "MIC", "setting": "Pseudomonas aeruginosa", "result": 0.012, "unit": "µg/mL"}]}
{"compound": "CC(C)C[C@@H]1NC(=O)[C@H](Cc2c[nH]c3ccccc23)NC(=O)[C@H]([C@@H](C)O)NC(=O)[C@@H]2CCCN2C(=O)[C@H]2CCCN2C(=O)[C@H](CCCCN)NC(=O)[C@H](C)N(C)C(=O)[C@H](CCN)NC(=O)[C@H](CCCN)NC(=O)[C@H](Cc2c[nH]c3ccccc23)NC(=O)[C@H](CCCNC(=N)N)NC(=O)[C@@H](CCCCN)NC(=O)[C@H](CCCN)NC(=O)[C@H](CCN)NC1=O", "values": [{"measurement": "MIC", "setting": "[1]", "result": "> 64", "unit": "µg/mL"}, {"measurement": "MIC", "setting": "Pseudomonas aeruginosa", "result": "> 64", "unit": "µg/mL"}]}
{"compound": "CC(C)C[C@H]1C(=O)N[C@@H](CCN)C(=O)N[C@@H](CCCN)C(=O)N[C@H](CCCCN)C(=O)N[C@@H](CCCNC(=N)N)C(=O)N[C@@H](Cc2c[nH]c3ccccc23)C(=O)N[C@@H](CCCN)C(=O)N[C@@H](CCN)C(=O)N[C@@H](C)C(=O)N[C@@H](CCCCN)C(=O)N2CCC[C@@H]2C(=O)N2CCC[C@H]2C(=O)N[C@@H]([C@@H](C)O)C(=O)N[C@@H](Cc2c[nH]c3ccccc23)C(=O)N1C", "values": [{"measurement": "MIC", "setting": "[1]", "result": "> 64", "unit": "µg/mL"}, {"measurement": "MIC", "setting": "Pseudomonas aeruginosa", "result": "> 64", "unit": "µg/mL"}]}
{"compound": "CC(C)C[C@@H]1NC(=O)[C@H](Cc2c[nH]c3ccccc23)NC(=O)[C@H]([C@@H](C)O)NC(=O)[C@@H]2CCCN2C(=O)[C@H]2CCCN2C(=O)[C@H](CCCCN)NC(=O)[C@H](C)NC(=O)[C@H](CCN)NC(=O)[C@H](CCCN)NC(=O)[C@H](Cc2c[nH]c3ccccc23)N(C)C(=O)[C@H](CCCNC(=N)N)NC(=O)[C@@H](CCCCN)NC(=O)[C@H](CCCN)NC(=O)[C@H](CCN)NC1=O", "values": [{"measurement": "MIC", "setting": "[1]", "result": 0.13, "unit": "µg/mL"}, {"measurement": "MIC", "setting": "Pseudomonas aeruginosa", "result": 0.023, "unit": "µg/mL"}]}
